Experimental data published in publication PMC8154566, “Scaffold-Hopping Strategy on a Series of Proteasome Inhibitors Led to a Preclinical Candidate for the Treatment of Visceral Leishmaniasis” (Journal of Medicinal Chemistry, 2021).
Values after ≈ are worked out from the molar mass of the structure shown. Where two headings read alike, the source gives them in different places.

Columns and labels:
[1] = Mouse liver microsomal intrinsic clearance; type: in vitro ADME; details: for Mouse CLi: mouse liver microsomes; for Cli (mouse, ml/min/g): supplementary csv
Description: (§1) Intramacrophage L. donovani Assay. This assay was conducted as previously described, except for compound exposure time, which was 96 h instead of 72 h.4
(§2) Intrinsic Clearance. This assay was conducted as previously described.5 Aqueous Solubility. This assay was conducted as previously described.6
(§3) FaSSIF Solublity. This assay was conducted as previously described.5,7
(§4) In vivo Mouse Efficacy Studies. In vivo studies were carried out as previously described, with minor modifications.7 Briefly: Control drug used was Miltefosine (30 mg/kg orally, twice daily for 5 days), vehicle used was 10% (v/v) dimethyl sulfoxide (DMSO), 40% polyethylene glycol 400, and 50% deionized water (10 Ml/kg orally, twice daily for 5 days) and mice were treated with test compound intraperitoneally (50 mg/kg twice daily for 5 days). 5
(§5) All regulated procedures on living animals were carried out under the authority of a project license issued by the Home Office under the Animals (Scientific Procedures) Act 1986, as amended in 2012 (and in compliance with EU Directive EU/2010/63). Infected animals had access to food and water ad libitum and were housed under a 12 hour light/dark photoperiod. Animals used in these experiments were female NMRI and Balb/c mice (Harlan, UK).
(§6) Test compound DDD01008714 was dosed orally (P.O.) at 10 mg free base/kg (dose volume 10 mL/kg; dose vehicle: 10% (vol/vol) dimethyl sulfoxide (DMSO), 40% polyethylene glycol 400 (PEG400) and 50% deionized water) to female NMRI mice (n = 3) or intravenously (I.V.) at 3 mg free base/kg (dose volume 5 mL/kg; dose vehicle: 10% (vol/vol) dimethyl sulfoxide (DMSO) and 90% Saline) to female Balb/c mice (n = 3). Blood samples (10 μL) where taken from the tail vein of […]

L. donovani amastigotes = assay: INMAC assay: intramacrophage L. donovani in differentiated THP-1 cells; type: cell-based, Leishmania donovani; details: for EC50: THP-1; for loss of potency: INMAC, relative to compound 4
Description: (§7) Intramacrophage L. donovani Assay. This assay was conducted as previously described, except for […]

THP-1 cells = assay: THP-1 host cell read-out of the INMAC assay; type: cell-based; details: for EC50 / IC50: Homo sapiens, THP-1; for IC50: read-out: THP1 pIC50 (converted)
Description: as §7

[2] = Kinetic aqueous solubility by CLND; type: physicochemical
Description: We had successfully used these criteria in the hit to lead stage to identify compounds for in vivo proof-of-concept studies in another program, which subsequently led to the identification of preclinical candidate DDD853651/GSK3186899 active against CRK12.[7] […] A pharmacokinetic (PK) study was thus performed, dosed at 10 mg/kg po and 3 mg/kg iv. […] With the limited knowledge of the PK/PD drivers for the treatment of VL, we considered this to be a suitable profile for the progression of 4 into a previously reported mouse efficacy model of VL,[6],[7],[17],[18] where it was dosed twice daily at 50 mg/kg ip in order to further maximize exposure and give the best chance of achieving proof-of-concept.
as §1, §2, §3, §4, §5, §6

[3] = FaSSIF (fasted state simulated intestinal fluid) solubility; type: physicochemical
Description: as §1, §2, §3, §4, §5, §6

[4] = Leishmania donovani, Table 6, at least three replicates, SD ≤0.4, read-out: INMAC pEC50 (converted)
[5] = Table 6, read-out: THP-1 pEC50 (converted)
[6] = Table 6, kinetic, CLND, read-out: Aq. solubility
[7] = supplementary csv, read-out: Aqueous Solubility
[8] = Leishmania donovani, Table 2, at least three replicates, SD ≤0.4, read-out: INMAC (pEC50) (converted)
[9] = Table 2, read-out: THP-1 (pEC50) (converted)
[10] = Table 2, kinetic, CLND, read-out: Aq. solubility

Row | Compound | Mouse CLi ([1]; Table 6) [mL/min/g] | Cli (mouse, ml/min/g) [1] [mL/min/g] | EC50 (L. donovani amastigotes; [4]) [µM] | EC50 (THP-1 cells; [5]) [µM] | IC50 (THP-1 cells; supplementary csv) [µM] | solubility [2, 6] [µM] | solubility [2, 7] [µM] | solubility at 4 h ([3]; pH 6.5, Table 6) [µM] | solubility ([3]; supplementary csv) [µM] | other results
1 | CC1(C)CN(c2cnc3nc(-c4cc(NC(=O)N5CCCC5)ccc4F)ccn23)CCO1 [Compound 42, N-(3-(3-(2,2-Dimethylmorpholino)imidazo[1,2-a]pyrimidin-7-yl)-4-fluorophenyl)pyrrolidine-1-carboxamide] | 2.9 | 2.9 | 1 | 25.1 | 25.1 | 247 (≈ 108 µg/mL) | 250 (≈ 110 µg/mL) | 1840 (≈ 806 µg/mL) | > 1000 | 
2 | CC1(C)COCCN1c1cnc2nc(-c3cc(NC(=O)N4CCCC4)ccc3F)ccn12 [Compound 43, N-(3-(3-(3,3-Dimethylmorpholino)imidazo[1,2-a]pyrimidin-7-yl)-4-fluorophenyl)pyrrolidine-1-carboxamide] | 6.0 | 6 | 0.794 | 50.1 | 50.1 | 210 (≈ 92.1 µg/mL) |  | 627 (≈ 275 µg/mL) | 630 (≈ 276 µg/mL) | 
3 | O=C(Nc1ccc(F)c(-c2ccn3c(-c4ccccc4)cnc3n2)c1)N1CCCC1 [Compound 28, N-(4-Fluoro-3-(3-phenylimidazo[1,2-a]pyrimidin-7-yl)phenyl)pyrrolidine-1-carboxamide] | 2.5 | 2.5 | 0.251 | 50.1 | 50.1 | 39 (≈ 15.7 µg/mL) |  | 7 (≈ 2.81 µg/mL) | 8 (≈ 3.21 µg/mL) | 
4 | COc1ccc(NC(=O)N2CCCC2)cc1-c1cn2cc(N3CCOCC3)cnc2n1 [Compound 7, N-(4-Methoxy-3-(6-morpholinoimidazo[1,2-a]pyrimidin-2-yl)phenyl)pyrrolidine-1-carboxamide] |  | <0.5 |  |  | > 50.1 |  | ≥ 430 |  |  | Mouse CLi ([1]; Table 2): <0.5 mL/min/g; loss of potency (L. donovani amastigotes): > 10 fold; IC50 (L. donovani amastigotes; Leishmania donovani, THP-1, read-out: LdInMac pIC50 (converted)): > 50.1 µM; EC50 (L. donovani amastigotes; [8]): > 50.1 µM; EC50 (THP-1 cells; [9]): > 50.1 µM; solubility [2, 10]: ≥ 425 µM; solubility at 4 h ([3]; pH 6.5, Table 2): 83 µM (≈ 35.1 µg/mL)
5 | (R)-N-(4-Fluoro-3-(3-(3-methylmorpholino)imidazo[1,2-a]pyrimidin-7-yl)phenyl)pyrrolidine-1-carboxamide [Compound 39] | 2.7 | 2.7 |  |  |  | ≥362 |  |  |  | INMAC pEC50 (L. donovani amastigotes; Table 6, at least three replicates, SD ≤0.4): 5.9; LdInMac pIC50 (L. donovani amastigotes; supplementary csv): 5.9; THP-1 pEC50 (THP-1 cells; Table 6): 4.3; THP1 pIC50 (THP-1 cells; supplementary csv): 4.3; Aqueous Solubility ([2]; supplementary csv): ≥ 360 µM; FaSSIF solubility ([3]; Table 6): 1,322 μM; FaSSIF solubility ([3]; supplementary csv): >1000 µM
6 | CC(C)Cc1cnc2nc(-c3cc(NC(=O)N4CCCC4)ccc3F)ccn12 [Compound 31, N-(4-Fluoro-3-(3-isobutylimidazo[1,2-a]pyrimidin-7-yl)phenyl)pyrrolidine-1-carboxamide] | 15 | 15 | 0.501 | 63.1 | 63.1 | 182 (≈ 69.4 µg/mL) | 180 (≈ 68.7 µg/mL) | 178 (≈ 67.9 µg/mL) | 180 (≈ 68.7 µg/mL) | 
7 | O=C(Nc1cc(-c2cn3cc(N4CCOCC4)cnc3n2)ccc1F)N1CCCC1 [Compound 5, N-(2-Fluoro-5-(6-morpholinoimidazo[1,2-a]pyrimidin-2-yl)phenyl)pyrrolidine-1-carboxamide] |  | 0.9 |  |  | > 50.1 |  | 260 (≈ 107 µg/mL) |  |  | Mouse CLi ([1]; Table 2): 0.9 mL/min/g; loss of potency (L. donovani amastigotes): > 10 fold; EC50 (L. donovani amastigotes; [8]): 15.8 µM; EC50 (THP-1 cells; [9]): > 50.1 µM; solubility [2, 10]: 256 µM (≈ 105 µg/mL); solubility at 4 h ([3]; pH 6.5, Table 2): 51 µM (≈ 20.9 µg/mL)
